This assay has as its target WDR5 (Homo sapiens (Human), UniProt P61964). In words: Fluorescence polarization anisotropy (FPA) competition assay, displacement of FITC-MLL or 10mer-Thr-FAM peptide. It is filed as binding. From the text:
The assay is run in 384-well format and is read on a BioTek Cytation. […] Replicate values are fit to a 4-parameter fit in XLFit to generate a single IC50 value for each compound that is then converted to a Ki value. Experiments are repeated to generate a 2nd, independent Ki value; values from the two experiments are averaged to produce the reported Ki value for the compound.
In general terms: Fluorescence polarisation rises when a labelled molecule tumbles more slowly, as on binding a larger partner.

Setting [1] is: Inhibition of WDR5 by FPA assay.
Where [2] appears, read: Table B2, WDR5 WIN-site binding affinity, values not less than 1 nM (FPA).
[3] abbreviates: Table C2, WDR5 WIN-site binding affinity, values not less than 1 nM (FPA).

This is an account of results in patent US10807959B2, “WDR5-MLL1 inhibitors and modulators” (Vanderbilt University, priority 2018, dated 2020).

The structures appear in SMILES notation. Where only a bound is given, the exact number is not on record here.

The Ki is the dissociation constant of the complex between target and ligand, obtained from inhibition or displacement. Low readings indicate higher affinity, high ones lower affinity.

Compound `Cc1nc(F)ccc1-c1cc(Cn2ccnc2)cc(C(=O)NC(C)C2CCCCC2)c1` (stereo not shown) [Example 132, 3-((1H-Imidazol-1-yl)methyl)-N-(1-cyclohexylethyl)-5-(6-fluoro-2-methylpyridin-3-yl)benzamide] yielded a Ki under setting [1] of 3.9 nM.

As to `O=C(NCc1ccc(Cl)c(Cl)c1)c1cc(Cn2ccnc2C(F)(F)F)cc(-c2ccc(F)cc2Cl)c1` [Example 135, 2′-Chloro-N-(3,4-dichlorobenzyl)-4′-fluoro-5-((2-(trifluoromethyl)-1H-imidazol-1-yl)methyl)-[1,1′-biphenyl]-3-carboxamide], under setting [1], the Ki was over 10000 nM.

Regarding `O=C(NCc1ccc(Cl)c(Cl)c1)c1cc(Cn2ccnc2)cc(N2CCCC2)c1` [Example 136, 3-((1H-Imidazol-1-yl)methyl)-N-(3,4-dichlorobenzyl)-5-(pyrrolidin-1-yl)benzamide], the Ki under setting [1] came out at 6.5 nM.

`CC(C)(NC(=O)c1cc(Cn2ccnc2)cc(-c2ccc(F)cc2Cl)n1)C1CC1` [Example 149, 4-((1H-imidazol-1-yl)methyl)-6-(2-chloro-4-fluorophenyl)-N-(2-cyclopropylpropan-2-yl)picolinamide] returned a Ki under setting [1] of 8.6 nM.

As to `CCC(NC(=O)c1cc(Cn2ccnc2)cc(-c2ccc(F)cc2Cl)n1)C1CC1` (stereo not shown) [Example 152, 4-((1H-Imidazol-1-yl)methyl)-6-(2-chloro-4-fluorophenyl)-N-(1-cyclopropylpropyl)picolinamide], the affinity under setting [1] corresponds to a Ki of 13.1 nM.

For the compound `Cc1cc(C)cc(CNC(=O)c2cc(Cn3ccnc3)cc(-c3ccc(F)cc3Cl)n2)c1` [Example 153, 4-((1H-Imidazol-1-yl)methyl)-6-(2-chloro-4-fluorophenyl)-N-(3,5-dimethylbenzyl)picolinamide], the inhibitory constant (Ki) under setting [1] is 4.8 nM.

In turn, `COc1cc(OC)cc(C(C)NC(=O)c2cc(Cn3ccnc3)cc(-c3ccc(F)cc3Cl)n2)c1` (stereo not shown) [Example 154, 4-((1H-Imidazol-1-yl)methyl)-6-(2-chloro-4-fluorophenyl)-N-(1-(3,5-dimethoxyphenyl)ethyl)picolinamide] showed a Ki under setting [1] of 5.1 nM.

`O=C(NCc1cc(Cl)cc(Cl)c1)c1cccc(CNC2=NCCN2)c1` [Example B1, N-(3,5-dichlorobenzyl)-3-(((4,5-dihydro-1H-imidazol-2-yl)amino)methyl)benzamide] came in with a Ki under setting [2] of 18 nM.

`CC(C)N(Cc1cccc(Cl)c1)C(=O)c1cccc(CNC2=NCCN2)c1` [Example B2] returned a Ki under setting [2] of 400 nM.

With `O=C(NCc1ccc(Cl)c(Cl)c1)c1cccc(CNC2=NCCN2)c1` [Example B3], the Ki under setting [2] amounted to 209 nM.

`Cc1cc(CNC(=O)c2cccc(CNC3=NCCN3)c2)ccc1Cl` [Example B4]: under setting [2], the Ki came to 11.9 nM.

On to `Cc1cc(C)cc(CNC(=O)c2ccc(F)c(CNC3=NCCN3)c2)c1` [Example B7], for which, under setting [2], the inhibition constant Ki was 8.46 nM.

In the case of `O=C(NCc1ccc(Cl)c(Cl)c1)c1cc(Cl)cc(CNC2=NCCN2)c1` [Example B8], under setting [2], affinity was put at a Ki of 10.7 nM.

Take `O=C(NCc1cc(Cl)cc(Cl)c1)c1cc(Cl)cc(CNC2=NCCN2)c1` [Example B9]: under setting [2], the affinity corresponds to a Ki of 17.4 nM.

Take `Cc1ccc(CNC(=O)c2cc(Cl)cc(CNC3=NCCN3)c2)cc1Cl` [Example B10]: under setting [2], the Ki stood at 54.5 nM.

Take `Cc1cc(C)cc(CNC(=O)c2cc(Cl)cc(CNC3=NCCN3)c2)c1` [Example B11]: the Ki under setting [2] turned out to be 46 nM.

Compound `CC(NC(=O)c1cc(Cl)cc(CNC2=NCCN2)c1)c1cccc(Cl)c1` (stereo not shown) [Example B12] displayed a Ki under setting [2] of 65.1 nM.

In turn, `O=C(NCc1cc(Cl)ccn1)c1ccc(F)c(CNC2=NCCN2)c1` [Example B16] showed an inhibitory constant (Ki) under setting [2] of 9.05 nM.

On to `O=C(NCc1cc(Cl)cc(Cl)c1)c1ccc(F)c(CNC2=NCCN2)c1` [Example B17], for which the Ki under setting [2] was 2.47 nM.

In turn, `COc1cc(OC)cc(C(C)NC(=O)c2ccc(F)c(CNC3=NCCN3)c2)c1` (stereo not shown) [Example B18] showed a Ki under setting [2] of 1.81 nM.

Compound `COc1ccc(CNC(=O)c2ccc(F)c(CNC3=NCCN3)c2)cc1OC` [Example B19] had a Ki under setting [2] of 8.06 nM.

For `Cc1ccnc(C(NC(=O)c2ccc(F)c(CNC3=NCCN3)c2)C2CC2)c1` (stereo not shown) [Example B20], the Ki under setting [2] worked out at 4.6 nM.

Compound `COc1ccnc(CNC(=O)c2ccc(F)c(CNC3=NCCN3)c2)c1` [Example B22] showed a Ki under setting [2] of 1.5 nM.

For `O=C(NCc1ccc(Cl)cn1)c1ccc(F)c(CNC2=NCCN2)c1` [Example B23], under setting [2], the Ki stood at 30.3 nM.

`COc1cc(CN(C)C(=O)c2ccc(F)c(CNC3=NCCN3)c2)cc(OC)c1` [Example B24] had a Ki under setting [2] of 49.8 nM.

For the compound `COc1cccc(CNC(=O)c2ccc(F)c(CNC3=NCCN3)c2)n1` [Example B25], the Ki under setting [2] worked out at 74.2 nM.

For the compound `COc1ccc(C(=O)NCc2ccc(F)c(CNC3=NCCN3)c2)cc1Cl` [Example B26], the affinity under setting [2], expressed as Ki, was 3.24 nM.

Turning to `COc1cc(CNC(=O)c2ccc(OC)c(CNC3=NCCN3)c2)cc(OC)c1` [Example B27, 3-(((4,5-dihydro-1H-imidazol-2-yl)amino)methyl)-N-(3,5-dimethoxybenzyl)-4-methoxybenzamide], affinity under setting [2] was put at a Ki of 7.52 nM.

Turning to `Cc1ccnc(CNC(=O)c2ccc(F)c(CNC3=NCCN3)c2)c1` [Example B29], the Ki under setting [2] came out at 24.9 nM.

Take `Cc1cc(C)cc(CNC(=O)c2cc(F)c(F)c(CNC3=NCCN3)c2)c1` [Example B31]: the affinity under setting [2], expressed as Ki, was 8.11 nM.

`COc1ccc(CNC(=O)c2cc(F)c(F)c(CNC3=NCCN3)c2)cc1Cl` [Example B32] returned a Ki under setting [2] of 4.51 nM.

As for `COc1ccnc(CNC(=O)c2cc(F)c(F)c(CNC3=NCCN3)c2)c1` [Example B34], under setting [2], the affinity corresponds to a Ki of 12 nM.

Under setting [2], `COc1cc(OC)cc(C(C)NC(=O)c2cc(F)c(F)c(CNC3=NCCN3)c2)c1` (stereo not shown) [Example B35] gave a Ki of 4.22 nM.

Under setting [2], `COc1cc(CNC(=O)c2cc(CNC3=NCCN3)ccc2F)cc(OC)c1` [Example B37] came in with a Ki of 8.71 nM.

As for `COc1cc(CNC(=O)c2ccc(OC)c(CNC3=NCCN3)c2)ccc1Cl` [Example B38], the Ki under setting [2] was found to be 24.5 nM.

In the case of `COc1ccc(C(=O)NCc2cc(Cl)ccn2)cc1CNC1=NCCN1` [Example B39], the affinity under setting [2], expressed as Ki, was 1.39 nM.

Regarding `COc1ccnc(CNC(=O)c2ccc(OC)c(CNC3=NCCN3)c2)c1` [Example B40], under setting [2], the affinity corresponds to a Ki of 7.21 nM.

For `COc1ccc(C(=O)NCc2ccc(Cl)c(F)c2)cc1CNC1=NCCN1` [Example B41], the Ki under setting [2] was determined as 1.76 nM.

In turn, `COc1ccc(C(=O)NCc2ccc(Cl)c(C)c2)cc1CNC1=NCCN1` [Example B42] registered a Ki under setting [2] of 1.51 nM.

As for `COc1cc(OC)cc(C(C)NC(=O)c2ccc(OC)c(CNC3=NCCN3)c2)c1` (stereo not shown) [Example B43], under setting [2], the Ki worked out at 1.82 nM.

As for `COc1ccc(C(=O)NCc2ccc(Cl)cn2)cc1CNC1=NCCN1` [Example B44], the Ki under setting [2] amounted to 20.3 nM.

`Cc1cc(C)nc(CNC(=O)c2ccc(F)c(CNC3=NCCN3)c2)n1` [Example B45] registered a Ki under setting [2] of 11.3 nM.

Under setting [2], `Cc1cnc(CNC(=O)c2ccc(F)c(CNC3=NCCN3)c2)cn1` [Example B46] returned a Ki of 3.96 nM.

Under setting [2], `Cc1ccnc(C(NC(=O)c2cc(CNC3=NCCN3)c(F)cc2F)C2CC2)c1` (stereo not shown) [Example B48] registered a Ki of 2.17 nM.

For `COc1cc(OC)cc(C(C)NC(=O)c2cc(CNC3=NCCN3)c(F)cc2F)c1` (stereo not shown) [Example B49], the affinity under setting [2] corresponds to a Ki of 1.06 nM.

On to `CCOc1ccc(C(=O)NC(c2cc(C)ccn2)C2CC2)cc1CNC1=NCCN1` (stereo not shown) [Example B50], for which the Ki under setting [2] stood at 12.4 nM.

In turn, `CCOc1ccc(C(=O)NC(C)c2cc(OC)cc(OC)c2)cc1CNC1=NCCN1` (stereo not shown) [Example B51, 3-(((4,5-dihydro-1H-imidazol-2-yl)amino)methyl)-N-(1-(3,5-dimethoxyphenyl)ethyl)-4-ethoxybenzamides] registered an inhibition constant Ki under setting [2] of 9.77 nM.

`COc1cc(OC)cc(C(C)NC(=O)c2ccc(OC(C)C)c(CNC3=NCCN3)c2)c1` (stereo not shown) [Example B52, 3-(((4,5-dihydro-1H-imidazol-2-yl)amino)methyl)-N-(1-(3,5-dimethoxyphenyl)ethyl)-4-isopropoxybenzamide] came in with a Ki under setting [2] of 33 nM.

Regarding `CC(C)Oc1ccc(C(=O)NCc2ccc(Cl)c(Cl)c2)cc1CNC1=NCCN1` [Example B53], the Ki under setting [2] was found to be 40.9 nM.

Under setting [2], `O=C(NCc1ccc(Cl)c(Cl)c1)c1cc(CNC2=NCCN2)cc(-c2ccc(F)cc2Cl)c1` [Example B54] had a Ki of 1.12 nM.

With `Cc1cc(C)cc(CNC(=O)c2cc(CNC3=NCCN3)cc(-c3ccc(F)cc3Cl)c2)c1` [Example B55], the affinity under setting [2], expressed as Ki, was 1.27 nM.

For `Cc1cc(CNC(=O)c2cc(CNC3=NCCN3)cc(-c3ccc(F)cc3Cl)c2)ccc1Cl` [Example B58], under setting [2], the inhibition constant (Ki) is 2.06 nM.

The compound `Cc1ccncc1-c1cc(CNC2=NCCN2)cc(C(=O)NCc2cccc(F)n2)c1` [Example B89] showed an inhibition constant Ki under setting [2] of 4.39 nM.

`Cc1cc(-c2cc(CNC3=NCCN3)cc(C(=O)NCc3cccc(F)n3)c2)ccn1` [Example B95]: the Ki under setting [2] was found to be 6.1 nM.

As for `COc1cc(OC)cc(C(C)NC(=O)c2ccc(OC(C)C)c(CNC3=NCCC3)c2)c1` (stereo not shown) [Example B124], the Ki under setting [2] is over 33 nM.

Consider `CC(C)Oc1ccc(C(=O)NCc2ccc(Cl)c(Cl)c2)cc1CNC1=NCCC1` [Example B125], for which, under setting [2], the Ki is over 33 nM.

`COc1cc(OC)cc(C(C)NC(=O)c2cc(CNC3=NCCN3)ccn2)c1` (stereo not shown) [Example C20, 4-(((4,5-dihydro-1H-imidazol-2-yl)amino)methyl)-N-(1-(3,5-dimethoxyphenyl)ethyl)picolinamide] showed a Ki under setting [3] of 30.3 nM.

Consider `COc1cc(OC)cc(C(C)NC(=O)c2cc(CNC3=NCCC3)ccn2)c1` (stereo not shown) [Example C21, 4-(((3,4-dihydro-2H-pyrrol-5-yl)amino)methyl)-N-(1-(3,5-dimethoxyphenyl)ethyl)picolinamide], for which, under setting [3], the Ki was 33 nM.

In turn, `Cc1cc(CNC(=O)c2cc(CNC3=NCCC3)cc(-c3ccc(F)cc3C)n2)ccc1Cl` [Example C23] showed a Ki under setting [3] of 3.13 nM.

In the case of `COc1cc(CNC(=O)c2cc(CNC3=NCCC3)cc(-c3ccc(F)cc3C)n2)cc(OC)c1` [Example C24], the Ki under setting [3] stood at 11.7 nM.

`COc1cc(CNC(=O)c2cc(CNC3=NCCC3)cc(-c3ccc(F)cc3C(F)(F)F)n2)cc(OC)c1` [Example C27] gave a Ki under setting [3] of 1.58 nM.
